Source: patent publication US20250098679A1, “HERBICIDAL PYRIDONE DERIVATIVES” (SYNGENTA CROP PROTECTION AG, priority 2021, published 2025)

What was measured:
Assay type in all cases: in vivo
Details in all cases: evaluated after 13 days
[1] = system: Ipomoea hederacea (IPOHE); assay: Pre-emergence Test, Ipomoea hederacea (IPOHE)
Zea mays (ZEAMX) [2] = assay: Post-emergence Test, Zea mays (ZEAMX); design: key to percentage damage caused to the plant, ZEAMX (five-point scale): 5=81-100%, 4=61-80%, 3=41-60%, 2=21-40%, 1=0-20% damage
Procedure, shortened: (§1)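 Application was a spray of acetone/water (50:50) with 0.5% Tween 20 onto pots of test species sown in standard soil. Unless otherwise stated, the rate was 1000 g/ha. After 13 days under glasshouse conditions (24/16 °C, 65% humidity), injury was scored from 1 (0-20%) to 5 (81-100%).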

[3] = system: Amaranthus retoflexus (AMARE); assay: Pre-emergence Test, Amaranthus retoflexus (AMARE)
Setaria faberi (SETFA) [4] = assay: Pre-emergence Test, Setaria faberi (SETFA)
[5] = system: Echinochloa crus-galli (ECHCG); assay: Pre-emergence Test, Echinochloa crus-galli (ECHCG)
[6] = system: Amaranthus palmeri (AMAPA); assay: Post-emergence Test, Amaranthus palmeri (AMAPA); design: key: 5=81-100%, 4=61-80%, 3=41-60%, 2=21-40%, 1=0-20% damage
Procedure, shortened: as §1

[7] = system: Echinochloa crus-galli (ECHCG); assay: Post-emergence Test, Echinochloa crus-galli (ECHCG); design: key to percentage damage caused to the plant, ECHCG (five-point scale): 5=81-100%, 4=61-80%, 3=41-60%, 2=21-40%, 1=0-20% damage
Procedure, shortened: as §1

[8] = system: Amaranthus palmeri (AMAPA); assay: Pre-emergence Test, Amaranthus palmeri (AMAPA)
Zea mays (ZEAMX) [9] = assay: Pre-emergence Test, Zea mays (ZEAMX)
Setaria faberi (SETFA) [10] = assay: Post-emergence Test, Setaria faberi (SETFA); design: key to percentage damage caused to the plant, SETFA (five-point scale): 5=81-100%, 4=61-80%, 3=41-60%, 2=21-40%, 1=0-20% damage
Procedure, shortened: as §1

[11] = system: Ipomoea hederacea (IPOHE); assay: Post-emergence Test, Ipomoea hederacea (IPOHE); design: key to percentage damage caused to the plant, IPOHE (five-point scale): 5=81-100%, 4=61-80%, 3=41-60%, 2=21-40%, 1=0-20% damage
Procedure, shortened: as §1

[12] = system: Amaranthus retoflexus (AMARE); assay: Post-emergence Test, Amaranthus retoflexus (AMARE); design: key to percentage damage caused to the plant, AMARE (five-point scale): 5=81-100%, 4=61-80%, 3=41-60%, 2=21-40%, 1=0-20% damage
Procedure, shortened: as §1

SMILES	Pre-emergence Test IPOHE, percentage damage caused to the plant (five-point scale) ([1]; 250 g/Ha (*))	Pre-emergence Test IPOHE, percentage damage caused to the plant (five-point scale) ([1]; 1000 g/ha)	percentage damage caused to the plant, ZEAMX (five-point scale) (Zea mays (ZEAMX) [2]; 250 g/Ha)	percentage damage caused to the plant, ZEAMX (five-point scale) (Zea mays (ZEAMX) [2]; 1000 g/ha)	Pre-emergence Test AMARE, percentage damage caused to the plant (five-point scale) ([3]; 250 g/Ha (*))	Pre-emergence Test AMARE, percentage damage caused to the plant (five-point scale) ([3]; 1000 g/ha)	Pre-emergence Test SETFA, percentage damage caused to the plant (five-point scale) (Setaria faberi (SETFA) [4]; 250 g/Ha (*))	Pre-emergence Test SETFA, percentage damage caused to the plant (five-point scale) (Setaria faberi (SETFA) [4]; 1000 g/ha)	Pre-emergence Test ECHCG, percentage damage caused to the plant (five-point scale) ([5]; 250 g/Ha (*))	Pre-emergence Test ECHCG, percentage damage caused to the plant (five-point scale) ([5]; 1000 g/ha)	percentage damage caused to the plant, AMAPA (five-point scale) ([6]; 250 g/Ha)	percentage damage caused to the plant, AMAPA (five-point scale) ([6]; 1000 g/ha)	percentage damage caused to the plant, ECHCG (five-point scale) ([7]; 1000 g/ha)	Pre-emergence Test AMAPA, percentage damage caused to the plant (five-point scale) ([8]; 250 g/Ha (*))	Pre-emergence Test AMAPA, percentage damage caused to the plant (five-point scale) ([8]; 1000 g/ha)	Pre-emergence Test ZEAMX, percentage damage caused to the plant (five-point scale) (Zea mays (ZEAMX) [9]; 250 g/Ha (*))	Pre-emergence Test ZEAMX, percentage damage caused to the plant (five-point scale) (Zea mays (ZEAMX) [9]; 1000 g/ha)	percentage damage caused to the plant, SETFA (five-point scale) (Setaria faberi (SETFA) [10]; 1000 g/ha)	percentage damage caused to the plant, IPOHE (five-point scale) ([11]; 1000 g/ha)	percentage damage caused to the plant, AMARE (five-point scale) ([12]; 1000 g/ha)	further results
CCn1c(Cn2ccc(Cl)n2)cc(=O)c(C(=O)O)c1-c1ccc(Cl)c(Cl)c1 [Compound 4, 6-[(3-chloropyrazol-1-yl)methyl]-2-(3,4-dichlorophenyl)-1-ethyl-4-oxo-pyridine-3-carboxylic acid]	2 (2=21-40%)	3 (3=41-60%)	2 (2=21-40%)	3 (3=41-60%)	0	2 (2=21-40%)	5 (5=81-100%)	5 (5=81-100%)	5 (5=81-100%)	5 (5=81-100%)	3 (3=41-60%)	4 (4=61-80%)	4 (4=61-80%)	0	1 (1=0-20%)	1 (1=0-20%)	3 (3=41-60%)	4 (4=61-80%)	4 (4=61-80%)	2 (2=21-40%)	percentage damage caused to the plant, ECHCG (five-point scale) ([7]; 250 g/Ha): 4 (4=61-80%); percentage damage caused to the plant, SETFA (five-point scale) (Setaria faberi (SETFA) [10]; 250 g/Ha): 4 (4=61-80%); percentage damage caused to the plant, AMARE (five-point scale) ([12]; 250 g/Ha): 3 (3=41-60%)
CCn1c(Cn2cnc(Cl)n2)cc(=O)c(C(=O)O)c1-c1ccc(Cl)c(Cl)c1 [Compound 5, 6-[(3-chloro-1,2,4-triazol-1-yl)methyl]-2-(3,4-dichlorophenyl)-1-ethyl-4-oxo-pyridine-3-carboxylic acid]	0	0	–	2 (2=21-40%)	0	0	2 (2=21-40%)	3 (3=41-60%)	3 (3=41-60%)	4 (4=61-80%)	–	1 (1=0-20%)	1 (1=0-20%)	0	2 (2=21-40%)	0	0	4 (4=61-80%)	1 (1=0-20%)	1 (1=0-20%)	–
CCn1c(Cn2cc(C(F)(F)F)cn2)cc(=O)c(C(=O)O)c1-c1ccc(Cl)c(Cl)c1 [Compound 6, 2-(3,4-dichlorophenyl)-1-ethyl-4-oxo-6-[[4-(trifluoromethyl)pyrazol-1-yl]methyl]pyridine-3-carboxylic acid]	1 (1=0-20%)	2 (2=21-40%)	0	4 (4=61-80%)	0	0	2 (2=21-40%)	4 (4=61-80%)	3 (3=41-60%)	3 (3=41-60%)	0	2 (2=21-40%)	4 (4=61-80%)	1 (1=0-20%)	–	0	0	4 (4=61-80%)	1 (1=0-20%)	0	percentage damage caused to the plant, ECHCG (five-point scale) ([7]; 250 g/Ha): 3 (3=41-60%); percentage damage caused to the plant, SETFA (five-point scale) (Setaria faberi (SETFA) [10]; 250 g/Ha): 0; percentage damage caused to the plant, IPOHE (five-point scale) ([11]; 250 g/Ha): 1 (1=0-20%); percentage damage caused to the plant, AMARE (five-point scale) ([12]; 250 g/Ha): 1 (1=0-20%)
CCn1c(Cn2cnc(C(F)(F)F)n2)cc(=O)c(C(=O)O)c1-c1ccc(Cl)c(Cl)c1 [Compound 7, 2-(3,4-dichlorophenyl)-1-ethyl-4-oxo-6-[[3-(trifluoromethyl)-1,2,4-triazol-1-yl]methyl]pyridine-3-carboxylic acid]	–	0	–	1 (1=0-20%)	–	0	–	3 (3=41-60%)	–	3 (3=41-60%)	–	1 (1=0-20%)	2 (2=21-40%)	–	0	–	1 (1=0-20%)	4 (4=61-80%)	1 (1=0-20%)	1 (1=0-20%)	–
CCOC(=O)c1c(-c2ccc(Cl)c(Cl)c2)n(CC)c(Cn2cc(F)cn2)cc1=O [Compound 8, ethyl 2-(3,4-dichlorophenyl)-1-ethyl-6-[(4-fluoropyrazol-1-yl)methyl]-4-oxo-pyridine-3-carboxylate]	–	1 (1=0-20%)	–	1 (1=0-20%)	–	0	–	1 (1=0-20%)	–	3 (3=41-60%)	–	1 (1=0-20%)	1 (1=0-20%)	–	0	–	0	4 (4=61-80%)	1 (1=0-20%)	1 (1=0-20%)	–
